Patent US20250041284A1, “TREATMENT OF NEUROLOGICAL DISORDERS” (Praxis Precision Medicines, Inc., priority 2022, published 2025)
Several values for one entry are separate records, joined by “and”; a condition that tells them apart may be missing. Equal entries are not always repeated. Entries after “also recorded” stand apart in the source; their conditions may differ.

Key:
human NaV1.6 [1] = target: T1, human NaV1.6 (Homo sapiens, UniProt Q9UQD0); test: Peak INa tonic block (TB), automated patch clamp in HEK cells; assay type: cell-based
T1 construct: HEK-293 cell lines stably expressing human NaV1.6 (NP_055006) were used; expressed in transfected cells
T1 sequence (Q9UQD0 whole entry): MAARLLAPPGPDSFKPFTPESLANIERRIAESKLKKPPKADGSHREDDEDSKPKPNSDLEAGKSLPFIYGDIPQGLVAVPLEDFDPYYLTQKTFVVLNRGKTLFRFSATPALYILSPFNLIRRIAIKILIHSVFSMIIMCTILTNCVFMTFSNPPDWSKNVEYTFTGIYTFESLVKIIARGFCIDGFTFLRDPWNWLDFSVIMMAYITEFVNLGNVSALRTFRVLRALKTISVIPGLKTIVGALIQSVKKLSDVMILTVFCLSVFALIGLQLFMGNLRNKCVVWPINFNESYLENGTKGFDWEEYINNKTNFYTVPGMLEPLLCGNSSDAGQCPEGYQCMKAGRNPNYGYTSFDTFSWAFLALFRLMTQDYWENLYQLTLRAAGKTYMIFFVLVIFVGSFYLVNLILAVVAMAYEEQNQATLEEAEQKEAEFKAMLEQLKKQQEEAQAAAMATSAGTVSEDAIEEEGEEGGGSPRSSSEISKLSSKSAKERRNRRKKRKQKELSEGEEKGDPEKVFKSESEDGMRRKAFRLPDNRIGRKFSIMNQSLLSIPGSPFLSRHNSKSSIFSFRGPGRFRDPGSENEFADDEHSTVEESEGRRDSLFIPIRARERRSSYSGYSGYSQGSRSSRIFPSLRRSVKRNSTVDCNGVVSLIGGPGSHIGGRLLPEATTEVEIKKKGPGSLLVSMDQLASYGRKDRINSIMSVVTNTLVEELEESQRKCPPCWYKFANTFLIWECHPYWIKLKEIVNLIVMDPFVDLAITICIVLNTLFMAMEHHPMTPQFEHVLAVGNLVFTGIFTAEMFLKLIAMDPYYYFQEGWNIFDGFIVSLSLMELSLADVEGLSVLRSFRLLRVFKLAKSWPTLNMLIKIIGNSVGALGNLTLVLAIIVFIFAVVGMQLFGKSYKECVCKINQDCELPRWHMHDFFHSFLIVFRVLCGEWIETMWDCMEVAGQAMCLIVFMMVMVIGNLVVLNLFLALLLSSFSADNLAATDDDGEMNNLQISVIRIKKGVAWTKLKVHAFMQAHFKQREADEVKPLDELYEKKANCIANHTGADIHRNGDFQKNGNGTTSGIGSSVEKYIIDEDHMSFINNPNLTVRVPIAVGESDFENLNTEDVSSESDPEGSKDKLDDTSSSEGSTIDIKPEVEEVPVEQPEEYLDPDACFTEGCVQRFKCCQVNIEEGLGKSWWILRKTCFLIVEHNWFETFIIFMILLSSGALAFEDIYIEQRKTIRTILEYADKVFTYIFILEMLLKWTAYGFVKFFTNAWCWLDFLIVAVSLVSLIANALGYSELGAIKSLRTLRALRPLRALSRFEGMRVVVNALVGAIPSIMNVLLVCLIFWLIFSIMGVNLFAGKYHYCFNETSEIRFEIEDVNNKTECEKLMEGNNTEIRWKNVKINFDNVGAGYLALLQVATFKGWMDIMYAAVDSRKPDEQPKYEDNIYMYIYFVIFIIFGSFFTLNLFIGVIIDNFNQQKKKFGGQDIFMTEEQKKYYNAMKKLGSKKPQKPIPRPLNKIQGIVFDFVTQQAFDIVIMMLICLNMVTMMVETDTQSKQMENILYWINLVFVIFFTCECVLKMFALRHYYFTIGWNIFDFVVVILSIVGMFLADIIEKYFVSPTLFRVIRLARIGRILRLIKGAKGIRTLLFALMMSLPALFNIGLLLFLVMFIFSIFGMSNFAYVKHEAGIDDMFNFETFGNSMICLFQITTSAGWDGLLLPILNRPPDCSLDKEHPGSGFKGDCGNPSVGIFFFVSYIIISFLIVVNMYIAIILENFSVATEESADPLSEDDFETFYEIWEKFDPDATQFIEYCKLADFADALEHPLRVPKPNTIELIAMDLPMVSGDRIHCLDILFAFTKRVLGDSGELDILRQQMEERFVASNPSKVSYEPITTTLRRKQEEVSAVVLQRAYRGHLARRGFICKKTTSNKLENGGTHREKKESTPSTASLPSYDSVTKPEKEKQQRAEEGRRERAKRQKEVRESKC

[2] = test system: scPTZ-induced seizures in wildtype CD-1 mice; test: Subcutaneous pentylenetetrazole (scPTZ) induced seizure; assay type: in vivo, mouse; settings: 1-10 mg/kg orally
Procedure: Male CD-1 mice (Charles River Laboratories, St. Constant, Quebec, Canada) were used for the study. Body weights at the time the experiment was carried out were between 27 and 39 grams. The mice were group-housed in polycarbonate cages according to standard operating procedures. Animals were maintained on a 12 hour light/12 hour dark cycle, with all experimental activities occurring during the light phase. Food and water were available ad libitum. Mice acclimated to the test facility for at least 72 hours prior to testing.
Treatment was conducted using Compound 1 and 35% 2-hydroxypropyl-β-cyclodextrin (35% HPBCD, used as a negative control). Compound 1 stock solution was prepared fresh each experiment day in 35% HPBCD. […]
Immediately prior to the administration of PTZ, a brief neurological assessment was performed. Each animal was visually assessed and received a score from 0 to 3 according to the following scoring system: neurological score of 0 corresponds to a normal status; neurological score of 1 corresponds to a modest decrease in spontaneous activity; neurological score of 2 corresponds to a marked decrease in spontaneous activity; and neurological score of 3 corresponds to loss of righting reflex.
PTZ (85 mg/kg, 10 ml/kg) was administered as a subcutaneous (s.c.) injection. […] The latency to generalized clonic seizure was recorded. Seizures were also scored using a seizure scale. […]

[3] = test system: MES-induced tonic hindlimb extension in male CD-1 mice; test: MES acute seizure model, protection from tonic hindlimb extension (Example 9); assay type: in vivo, mouse
Procedure: Male CD-1 mice (Vital River, Beijing, China) approximately 6 weeks old were obtained for the study. Body weights were between 20.5 grams and 38.5 grams at the time the experiments were carried out. […] Food and water were available ad libitum.
Treatment was conducted using Compound 1 and 35% 2-hydroxypropyl-β-cyclodextrin (35% HPBCD, used as a negative control). Compound 1 stock solution was prepared fresh each experiment day in 35% HPBCD and protected from light. The stock solution was diluted with vehicle for lower doses.
Mice were brought to the test room at least one hour before the start of the experiment. Mice were administered valproate (VPA; 400 mg/kg, intraperitoneally); or vehicle (35% HPBCD, 10 mL/kg, intraperitoneally); or Compound 1 (0.3 mg/kg, 1 mg/kg, 3 mg/kg or 10 mg/kg, orally) 30 minutes prior to the MES test.
The electroshock apparatus was set to deliver a 50 mA square-wave stimulus, with a 0.8 second duration, a pulse width of 10 milliseconds, and a frequency of 50 Hz. A pair of custom stainless-steel electrodes were soaked in 0.2% agar, and then the subject received bilateral transauricular stimulation through ear-clip electrodes. During the stimulation, mice were manually restrained then released immediately into an observation cage where they were monitored continuously for 60 seconds by an observer blinded to treatment group.
Mice were anesthetized with CO2 and terminal plasma and brain tissue samples were collected. […] The supernatant plasma was pipetted into Eppendorf tubes.
All statistical analyses were conducted using GraphPad Prism 9.3. Means were combined and standard error was calculated using the Satterthwaite Approximation to combine standard deviations. […] ED50 and EC50 values were calculated from these fit curves.

hNaV1.6 [4] = target: T2, hNaV1.6 (Homo sapiens, UniProt Q9UQD0); test: Apparent binding (KON) and unbinding (KOFF) rates inferred from INa inhibition kinetics; assay type: cell-based
T2 construct: expressed in transfected cells; host or cells: HEK cells
T2 sequence (Q9UQD0 whole entry): as above

human NaV1.6 [5] = target: T1, human NaV1.6; test: Persistent (late) INa inhibition, ATX-II activated, automated patch clamp in HEK cells; assay type: cell-based
hNaV1.6 [6] = target: T2, hNaV1.6; test: Peak INa voltage-dependent block (VDB), automated patch clamp in HEK cells; assay type: cell-based
[7] = recovery from inhibition of hNaV1.6 INa

CCOC(F)(F)c1nnc2ccc(-c3cnc(OCC(F)(F)F)c(F)c3)cn12 [Compound 1]
Ratio to Pers. INa (Peak INa TB) (human NaV1.6 [1]; peak INa TB IC50 / persistent INa IC50): 68
Peak INa TB Hill slope (human NaV1.6 [1]; tonic block): (1.0)
IC50 (human NaV1.6 [1]; tonic block, Vm -120 mV, 0.2 Hz): 8710 nM
neurological scores before PTZ [2]: Neurological scores for all but one mouse treated with Compound 1 were normal
protection from PTZ-induced generalized clonus ([2]; PTZ 85 mg/kg s.c.): mice were protected from generalized clonus
sedation or ataxia before MES test ([3]; 10 mg/kg orally): some mice showed sedation or ataxia; also recorded: six of thirty mice showed mild to moderate sedation
sedation or ataxia before MES test ([3]; 0.3 to 3 mg/kg orally): No sedation or ataxia was observed; also recorded: No sedation was observed
ED50 ([3]; Mus musculus, administered dose): 0.42 mg/kg
apparent KON (hNaV1.6 [4]; development of inhibition of hNaV1.6 INa): 4.2e+06 M⁻¹ s⁻¹ and 4.168e+06 M⁻¹ s⁻¹
kon (hNaV1.6 [4]; development of inhibition of hNaV1.6 INa, read-out: apparent KON): 4.2e+06 M⁻¹ s⁻¹
KON versus carbamazepine (hNaV1.6 [4]; fold faster): > 1,500 ×
KOFF slower than carbamazepine (hNaV1.6 [4]; fold slower unbinding): 33 ×
apparent KOFF (hNaV1.6 [4]; [7]): 1.7 s⁻¹ and 1.72 s⁻¹
koff (hNaV1.6 [4]; [7]): 1.7 s⁻¹
Persistent INa potency relative to the other tested INa blocking agents (human NaV1.6 [5]; fold more potent): at least 550 ×
Persistent INa Hill slope (human NaV1.6 [5]; hNaV1.6 in HEK cells, ATX-II): (1.4)
IC50 (human NaV1.6 [5]; hNaV1.6 in HEK cells, ATX-II, Vm -120 mV, 200 ms): 128 nM
preference for persistent INa relative to peak INa (human NaV1.6 [5]; in words, FIGS. 1A-1D): demonstrated preference for persistent INa relative to peak INa for all assay conditions
Ratio to Pers. INa (Peak INa VDB) (hNaV1.6 [6]; VDB IC50 / persistent INa IC50): 0.56
Peak INa VDB Hill slope (hNaV1.6 [6]; voltage-dependent block): (1.0)
IC50 (hNaV1.6 [6]; voltage-dependent block, Vm inactivation V1/2): 72 nM
